Numbers after ± are expanded uncertainties.
What was measured:
[1] = refractive index (Na D-line) (dimensionless); xn = mol fraction of the nth substance listed; conditions: 101 kPa, Liquid, Standard Abbe refractometry
[2] = relative permittivity at various frequencies (dimensionless); xn = mol fraction of the nth substance listed; conditions: 101 kPa, Liquid, Frequency=1 MHz, Parallel plate capacitor

CCCCCCN [1-hexanamine] + CCCO
Conditions	refractive index, 293.15 K	refractive index, 298.15 K	refractive index, 303.15 K	relative permittivity, 293.15 K	relative permittivity, 298.15 K	relative permittivity, 303.15 K
[1], x2 = 0	1.41808 ± 0.00033	1.41563 ± 0.00033	1.41321 ± 0.00033	–	–	–
[1], x2 = 0.052	1.41775 ± 0.00033	1.41529 ± 0.00033	1.41292 ± 0.00033	–	–	–
[1], x2 = 0.1015	1.41735 ± 0.00033	1.41492 ± 0.00033	1.41258 ± 0.00033	–	–	–
[1], x2 = 0.1475	1.41693 ± 0.00033	1.41452 ± 0.00033	1.41223 ± 0.00033	–	–	–
[1], x2 = 0.2108	1.41627 ± 0.00033	1.41393 ± 0.00033	1.4116 ± 0.00033	–	–	–
[1], x2 = 0.2983	1.41509 ± 0.00033	1.41276 ± 0.00033	1.41049 ± 0.00033	–	–	–
[1], x2 = 0.3967	1.41351 ± 0.00033	1.4112 ± 0.00033	1.40878 ± 0.00033	–	–	–
[1], x2 = 0.4998	1.41113 ± 0.00033	1.40876 ± 0.00033	1.40642 ± 0.00033	–	–	–
[1], x2 = 0.604	1.40784 ± 0.00033	1.40551 ± 0.00033	1.40323 ± 0.00033	–	–	–
[1], x2 = 0.6965	1.40408 ± 0.00033	1.40199 ± 0.00033	1.39964 ± 0.00033	–	–	–
[1], x2 = 0.8013	1.39877 ± 0.00034	1.39675 ± 0.00034	1.39454 ± 0.00034	–	–	–
[1], x2 = 0.8505	1.39588 ± 0.00034	1.39373 ± 0.00034	1.39168 ± 0.00034	–	–	–
[1], x2 = 0.8953	1.39295 ± 0.00034	1.39085 ± 0.00034	1.38884 ± 0.00034	–	–	–
[1], x2 = 0.9486	1.38914 ± 0.00035	1.38704 ± 0.00035	1.38505 ± 0.00035	–	–	–
[2], x2 = 0	–	–	–	3.964 ± 0.37	3.904 ± 0.37	3.846 ± 0.36
[2], x2 = 0.0708	–	–	–	4.411 ± 0.39	4.336 ± 0.38	4.263 ± 0.38
[2], x2 = 0.1073	–	–	–	4.663 ± 0.4	4.578 ± 0.39	4.499 ± 0.39
[2], x2 = 0.147	–	–	–	4.953 ± 0.41	4.857 ± 0.4	4.77 ± 0.4
[2], x2 = 0.1935	–	–	–	5.33 ± 0.42	5.222 ± 0.41	5.123 ± 0.41
[2], x2 = 0.307	–	–	–	6.436 ± 0.45	6.286 ± 0.45	6.148 ± 0.44
[2], x2 = 0.3941	–	–	–	7.471 ± 0.48	7.279 ± 0.48	7.102 ± 0.47
[2], x2 = 0.5056	–	–	–	9.113 ± 0.53	8.85 ± 0.52	8.605 ± 0.52
[2], x2 = 0.6097	–	–	–	10.99 ± 0.58	10.649 ± 0.57	10.324 ± 0.56
[2], x2 = 0.6977	–	–	–	12.847 ± 0.62	12.426 ± 0.61	12.034 ± 0.6
[2], x2 = 0.8044	–	–	–	15.469 ± 0.68	14.948 ± 0.66	14.463 ± 0.65
[2], x2 = 0.8406	–	–	–	16.431 ± 0.69	15.885 ± 0.68	15.354 ± 0.67
[2], x2 = 0.8989	–	–	–	18.08 ± 0.73	17.478 ± 0.71	16.902 ± 0.7
[2], x2 = 0.9504	–	–	–	19.605 ± 0.76	18.955 ± 0.74	18.33 ± 0.73

— the NIST ThermoML archive (doi:10.1016/j.fluid.2018.04.007)
